According to patent publication US20090291964A1, “Potentiators of Antibacterial Activity” (priority 2003, published 2009):

Experiments:
Assay type in all cases: cell-based
S. aureus ATCC 29213 [1] = assay: MIC by NCCLS microdilution, antibacterial agents with and without EPI
Outline: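 Efflux pump inhibitors were combined at fixed concentrations with antibiotics from several classes and tested against Staphylococcus aureus ATCC 29213 to compare minimum inhibitory concentrations with and without inhibitor. The inhibitor level was tied to its minimal effective concentration for ethidium bromide, a general efflux pump substrate. All assays contained a final concentration of 1% DMSO.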

E. faecalis ATCC 29212 [2] = assay: MIC by NCCLS microdilution, EtBr/EPI with and without EPI
Procedure: (§1) 3% sterile laked horse blood (Quad Five, Ryegate, Mont.) was added to assays for E. faecalis and S. Pneumoniae. A final concentration of 1% DMSO was present in all assays.
(§2) EtBr is a general substrate for many different efflux pumps in bacteria. Markham et al., “Multiple Novel Inhibitors of the NorA Multidrug Transporter of Staphylococcus aureus”, Antimicrob. Agents Chemother. 43:2404-2408 (1999). Since EtBr is a non-specific DNA intercalator, the only known mechanism of resistance to EtBr is via efflux. Markham et al., “Multiple Novel Inhibitors of the NorA Multidrug Transporter of Staphylococcus aureus”, Antimicrob. Agents Chemother. 43:2404-2408 (1999).

S. pneumoniae ATCC 10015 [3] = assay: as above
Procedure: as §1, §2

E. faecalis ATCC 29212 [4] = assay: Minimal effective concentration (MEC) of EPI for EtBr; settings: lowest amount of EPI which produces the maximum effect on the MIC of ethidium bromide
Procedure: (§3) The MEC was determined as the minimal concentration of EPI that produced the maximal reduction in substrate MIC.
(§4) The minimum effective concentration (MEC) for inhibition of EtBr efflux was determined in S. aureus, E. faecalis and S. pneumoniae for A-106 and C-9; reserpine was used as a comparator (Table 1).

S. aureus ATCC 29213 [5] = assay: as above
Procedure: as §3, §4

S. pneumoniae ATCC 10015 [6] = assay: as above; settings: lowest amount of EPI which produces the maximum effect on the MIC of ethidium bromide (reserpine: maximal subinhibitory concentration)
Procedure: as §3, §4

[7] = system: S. aureus SA-1199B (NorA overproducing); assay: MIC of fluoroquinolones with and without EPI
Outline: (§5)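 Fluoroquinolone MICs determined with and without efflux pump inhibitor in S. aureus SA-1199B (NorA overproducer with A116E GrlA mutation) and SA-K2068 (SA-8325-4 with a non-NorA multidrug efflux pump overproducing mutation). All assays contained 1% DMSO final.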

[8] = system: S. aureus SA-K2068 (non-NorA multidrug efflux pump overproducing); assay: microbe, parasite or virus in culture
Outline: as §5

[9] = S. aureus ATCC 29213, EPI at 4X the MEC for EtBr, VX-710 at 100 μg/ml
[10] = S. aureus ATCC 29213, EPIs used at the MEC, except VX-710 at 100 μg/ml
[11] = E. faecalis ATCC 29212, EPIs used at the MEC, except VX-710 at 100 μg/ml
[12] = S. pneumoniae ATCC 10015, EPIs used at the MEC, except VX-710 at 100 μg/ml
[13] = S. aureus SA-1199B, EPI at 4X the MEC for EtBr, VX-710 at 100 μg/ml
[14] = SA-1199B, EPIs at 4 times MEC for EtBr, A-106 at 100 μg/ml
[15] = K2068, EPIs at 4 times MEC for EtBr, A-106 at 100 μg/ml
[16] = S. aureus K2068, EPI at 4X the MEC for EtBr, VX-710 at 100 μg/ml

For `COc1cc(C(=O)C(=O)N2CCCC[C@H]2C(=O)OC(CCCc2cccnc2)CCCc2cccnc2)cc(OC)c1OC` [A-106], the “MIC of gatifloxacin with EPI” value (S. aureus ATCC 29213 [1]; S. aureus ATCC 29213 (Table 4)) was 0.125 µg/mL, the “effect on the MICs of gatifloxacin, erythromycin, azithromycin, chloramphenicol, ceftriaxone, and linezolid” value (S. aureus ATCC 29213 [1]; S. aureus ATCC 29213, Table 2) was “No effect” and the “MIC of EPI” value (S. aureus ATCC 29213 [1]; S. aureus ATCC 29213, EPI alone) was >100 µg/mL. For the same compound, the “MIC of EtBr with EPI” value (S. aureus ATCC 29213 [1]; [9]) was 0.2 µg/mL, the “MIC of ciprofloxacin with EPI” value (S. aureus ATCC 29213 [1]; [9]) was 0.063 µg/mL and the “MIC of gatifloxacin with EPI” value (S. aureus ATCC 29213 [1]; [9]) was 0.063 µg/mL. The “MIC of gentamicin with EPI” value (S. aureus ATCC 29213 [1]; [9]) was 0.125 µg/mL, the “MIC of levofloxacin with EPI” value (S. aureus ATCC 29213 [1]; [9]) was 0.125 µg/mL and the “MIC of norfloxacin with EPI” value (S. aureus ATCC 29213 [1]; [9]) was 0.125 µg/mL. The “Fold-reduction in EtBr MIC” value (S. aureus ATCC 29213 [1]; [10]) was 31, the “MIC of EtBr with EPI” value (S. aureus ATCC 29213 [1]; [10]) was 0.2 µg/mL and the “reduction of the MIC of EtBr” value (S. aureus ATCC 29213 [1]; S. aureus wild type, EPI up to 100 μg/ml, data not shown) was 30 fold. The “Fold-reduction in MIC” value (S. aureus ATCC 29213 [1]; gatifloxacin, S. aureus ATCC 29213) was 1, the “effect of EPI on the MIC of gatifloxacin” value (S. aureus ATCC 29213 [1]; wild type strain ATCC 29213) was “unaffected” and the “MIC of EPI” value (E. faecalis ATCC 29212 [2]; E. faecalis ATCC 29212, EPI alone) was >100 µg/mL. For the same compound, the “Fold-reduction in EtBr MIC” value (E. faecalis ATCC 29212 [2]; [11]) was 8, the “MIC of EtBr with EPI” value (E. faecalis ATCC 29212 [2]; [11]) was 0.8 µg/mL and the “intrinsic antibacterial activity of EPI” value (E. faecalis ATCC 29212 [2]; at 100 μg/ml, E. faecalis) was “no intrinsic antibacterial activity”. The “MIC of EPI” value (S. pneumoniae ATCC 10015 [3]; S. pneumoniae ATCC 10015, EPI alone) was >100 µg/mL, the “Fold-reduction in EtBr MIC” value (S. pneumoniae ATCC 10015 [3]; [12]) was “≧16” and the “MIC of EtBr with EPI” value (S. pneumoniae ATCC 10015 [3]; [12]) was “≦0.125 μg/ml”. For the same compound, the “intrinsic antibacterial activity of EPI” value (S. pneumoniae ATCC 10015 [3]; at 100 μg/ml, S. pneumoniae) was “no intrinsic antibacterial activity”, the “MEC of EPI” value (E. faecalis ATCC 29212 [4]) was “≧100 μg/ml” and the “MEC for EtBr efflux” value (S. aureus ATCC 29213 [5]; ATCC 29213, Table 1) was ≤ 100 µg/mL. For the same compound, the “MEC of EPI” value (S. aureus ATCC 29213 [5]; S. aureus ATCC 29213, lowest amount of EPI which produces the maximum effect on the MIC of ethidium bromide) was “≧100 μg/ml”, the “MEC of EPI” value (S. pneumoniae ATCC 10015 [6]) was “≧100 μg/ml” and the “MIC of gatifloxacin with EPI” value ([7]; S. aureus SA-1199B (NorA overproducer) (Table 4)) was 0.25 µg/mL. The “MIC of EtBr with EPI” value [7, 13] was 0.4 µg/mL, the “MIC of ciprofloxacin with EPI” value [7, 13] was 0.5 µg/mL and the “MIC of levofloxacin with EPI” value [7, 13] was 0.5 µg/mL. For the same compound, the “MIC of norfloxacin with EPI” value [7, 13] was 2 µg/mL, the “reduction of MIC of ciprofloxacin” value [7, 14] was 2 fold and the “reduction of MIC of gatifloxacin” value [7, 14] was 2 fold. The “reduction of MIC of levofloxacin” value [7, 14] was 1 fold, the “reduction of MIC of norfloxacin” value [7, 14] was 8 fold and the “Fold-reduction in MIC” value ([7]; gatifloxacin, S. aureus SA-1199B (NorA overproducer)) was 2. For the same compound, the “reduction of MIC of ciprofloxacin” value [8, 15] was 4 fold, the “reduction of MIC of gatifloxacin” value [8, 15] was 2 fold and the “reduction of MIC of levofloxacin” value [8, 15] was 2 fold. For the same compound, the “reduction of MIC of norfloxacin” value [8, 15] was 2 fold, the “MIC of gatifloxacin with EPI” value ([8]; S. aureus K2068 (nonNorA pump overproducer) (Table 4)) was 0.25 µg/mL and the “MIC of EtBr with EPI” value [8, 16] was 0.4 µg/mL. For the same compound, the “MIC of ciprofloxacin with EPI” value [8, 16] was 0.5 µg/mL, the “MIC of gatifloxacin with EPI” value [8, 16] was 0.25 µg/mL and the “MIC of gentamicin with EPI” value [8, 16] was 0.063 µg/mL. The “MIC of levofloxacin with EPI” value [8, 16] was 0.5 µg/mL, the “MIC of norfloxacin with EPI” value [8, 16] was 1 µg/mL and the “Fold-reduction in MIC” value ([8]; gatifloxacin, S. aureus K2068 (nonNorA pump overproducer)) was 4.
